What was measured:
park2 morphants = experiment: Seahorse basal respiration, park2 morphants (Parkinson's Disease model); assay type: in vivo, zebrafish; details: park2-MO
Experimental: (§1) Next, all positive hits were assayed for improve bioenergetics using Seahorse bioanalyzer (Seahorse, Inc). Briefly, morphant zebrafish were seeded into 24-well Islet Flux plates (Seahorse) and incubated with compound or vehicle for 10 minutes prior to analysis. Complete mitochondrial profile was assessed for each individual larvae. Drugs that improved bioenergetics by 40% were considered candidate drugs.
(§2) Morpholinos directed to scn1a (epilepsy), park2 (neurodegenerative disease), idh1 (brain tumors (astrocytoma/oligodendrogliomas), cdkn2b (oligodendroglioma), h3f3a (oligodendroglioma), snf5 (smarcbla in zebrafish; Atypical Teratoid/Rhabdoid)), and shank3 (Autism Spectrum Disorder) were created and zebrafish larvae exposed as detailed in Example 3.

kcna1 morphants = experiment: Drug-discovery platform (locomotor screen, then Seahorse), kcna1 morphant genetic model; assay type: in vivo, zebrafish; details: blinded study
Experimental: (§3) 10 mM stock solutions of drugs in DMSO were stored at −80° C. and on the day of assay were diluted in E3 medium to a final concentration of 20 μM. For behavioral assays and Seahorse bioenergetics, 20 μM final concentration was used. Adult wild-type TL zebrafish were raised at the Kurrasch Aquatic Research Laboratory at the University of Calgary under standard conditions (28° C., 14 h light/10 h dark cycle) on a recirculating water system.
(§4) Embryos were obtained by natural spawning from mating pairs, screened for viability and for kcna1 and scn1a morpholino models, embryos were injected with either the kcna1- or scn1a-targeting morpholino at the one cell stage. The embryos were sorted for uptake of the morpholino four hours post-injection and seeded to 96 well plates, wrapped in aluminum foil (i.e., raised in the dark), maintained in a non-CO2 incubator at 28.5° C. until 5 dpf.
(§5) On the day of assay, for the kcna1 and scn1a morpholino models, fish were habituated for 20 minutes under 100% light treated with 20 μm of drugs for 20 minutes, and then assayed for locomotor activity in dark for 20 minutes in the zebrabox (Viewpoint Lifesciences, Lyon, Fr). Larval locomotor activity was analyzed using Zebralab V3 software (Viewpoint Lifesciences, Lyon, Fr). For the PTZ model, at 5 dpf, fish were treated with 10 mM PTZ for 10 minutes and then with 20 μM of drugs for 20 minutes under ambient light, and then assayed for locomotor activity under 100% light for 20 minutes in the zebrabox (Viewpoint Lifesciences, Lyon, Fr). Larval locomotor activity was analyzed using Zebralab V3 software (Viewpoint Lifesciences, Lyon, France).
(§6) For the Seahorse bioenergetics measurements, microinjected kcna1 or scn1a morphants or WT zebrafish were maintained in 96 well plates as previously described. XF24 extracellular flux assay plates (Seahorse Bioscience; Massachusetts), were hydrated overnight with XF Calibrant (pH 7.4). […]

scn1a morphants [1] = experiment: Drug-discovery platform (locomotor screen, then Seahorse), scn1a morphant genetic model; assay type: in vivo, zebrafish; details: blinded study
Experimental: as §3, §4, §5, §6

kcna1 morphant zebrafish = experiment: Seahorse bioenergetic analysis, kcna1 morphants; assay type: in vivo; details: Seahorse Bioanalyzer; for effect on elevated basal respiration in kcna1 morphant larvae: 24-well plate
Source text: (§7) One exemplary protocol for measuring oxygen consumption rates (OCR) using Extracellular Flux Analyzer (Seahorse Bioscience, Billerica Mass.) is described below. First, sensor cartridges are hydrated in XF Calibrant Solution in 24-well cell culture microplates overnight at 28.5 C. Prior to experiment, injection ports are filled with appropriate treatments and loaded into XH24 instrument. Staged zebrafish embryos (3 days post fertilization used here) are individually placed in 20 of the 24 wells (4 wells serve as controls) on the islet microplate filled with E3 buffer and islet plate capture screens are placed on top to keep living zebrafish from moving during experiment. Plates are loaded into the instrument and six measurement cycles were taken to establish basal rates, which were then followed by treatment injections and 18 additional measurement cycles. OCRs were calculated at cycles five and six and then averaged to create the basal respiration. FCCP treatment was used to measure maximum OCR and oligomycin was used to measure minimum OCR.
as §1
FIG. 4 provides workflow and results of bioenergetic analyses in a hyperactive zebrafish. […] The plates were loaded into XFe24 Seahorse Bioanalyzer. Basal, maximal, non-mitochondrial, and mitochondrial cellular respiration were measured.

scn1a morphants [2] = experiment: Seahorse basal respiration, scn1a morphants; assay type: in vivo; details: scn1a-MO zebrafish
Experimental: as §1, §2

[3] = test system: kcna1 zebrafish morphants; experiment: Behavioral hyperactivity (locomotion) assay, kcna1 morphants; assay type: in vivo; details: larvae 5 days post fertilization; 10 minutes preincubation, assayed 20 minutes
Experimental: This Example utilizes the drug screening assay disclosed herein using morpholino-injected embryos to transiently knockdown genes of interest. Here, we compare three “epileptic” models for phenotypes in the behavioral assay: pharmacological-induction model (PTZ) and two genetic knockdown models (kcna1 and scn1a morphants).
Larvae were treated with morpholinos to kcna1 and scn1a as described above.
Zebrafish larvae (5 days post fertilization) were seeded into 96 well microliter plates containing vehicle solution and monitored for 20 minutes for hyperactivity. Morphants and WT zebrafish were exposed to drug for 10 minutes preincubation and then assayed for changes in hyperactivity for 20 minutes (Zebralab box). Drugs that decreased hyperactivity behavior by 40% in morphants were identified as “positive hits.”
These positive hits were then verified by conducting a dose-response relationship using hyperactivity as readout.

[4] = test system: PTZ-induced hyperactive zebrafish; experiment: Seahorse bioenergetic analysis, PTZ-treated larvae; assay type: in vivo; details: Seahorse Bioanalyzer
Source text: as §7, with “FCCP treatment was used to measure maximum OCR and oligomycin was used to measure minimum OCR.” left out
Next, all positive hits were assayed for improve bioenergetics using Seahorse bioanalyzer (Seahorse, Inc). […] Complete mitochondrial profile was assessed for each individual larvae. […]
FIG. 4 provides workflow and results of bioenergetic analyses in a hyperactive zebrafish. […] Basal, maximal, non-mitochondrial, and mitochondrial cellular respiration were measured.

kcna1 mutants = experiment: Seahorse basal respiration, kcna1 genetic mutant larvae; assay type: in vivo, zebrafish; details: larvae with increased basal respiration washed with PBS and treated
Experimental: This example confirms that the results of drug screens using zebrafish morphants are the same in zebrafish bearing corresponding germline mutations. kcna1^+/− zebrafish were generated as described in Example 1. Heterozygous kcna1^+/− F1s were incrossed and the offspring examined in a behavioral monitoring chamber (Zebralab). We assume ¾ of the progeny are WT or heterozygotes and ¼ are mutants.
Next, a similar experiment was conducted to confirm that kcna1 mutants display a similar phenotype for mitochondrial function (e.g., increased mitochondrial function). Larvae were seeded into 24-well plates and assayed in the Seahorse machine for altered bioenergetics as discussed above. […] Increased basal respiration levels in approximately 25% of the embryos were also detected, as would be expected for a homozygous recessive mutation. […] Genotype was subsequently confirmed by qPCR (FIG. 9D).

shank3 morphants = experiment: Seahorse basal respiration, shank3 morphants (ASD and schizophrenia model); assay type: in vivo, zebrafish; details: shank3-MO
Experimental: as §1, §2

cdkn2b morphants = experiment: Seahorse basal respiration, cdkn2b morphants (glioblastoma model); assay type: in vivo, zebrafish; details: cdkn2b-MO
Experimental: as §1, §2

smarcbla morphants = experiment: Seahorse basal respiration, smarcbla morphants (AT/RT model); assay type: in vivo, zebrafish; details: smarcbla-MO
Experimental: Next, all positive hits were assayed for improve bioenergetics using Seahorse bioanalyzer (Seahorse, Inc). Briefly, morphant zebrafish were seeded into 24-well Islet Flux plates (Seahorse) and incubated with compound or vehicle for 10 minutes prior to analysis. Complete mitochondrial profile was assessed for each individual larvae.
as §2

Kv1.1 null mice = experiment: Video EEG seizure recording in Kv1.1 rodent model; assay type: in vivo; details: three Kv1.1−/− mice; 20 mg/kg, twice a day, three consecutive days (PND 46-48) vs no treatment (PND 43-45); Two-way ANOVA, F=27.7, p<0.01
Experimental: Second, candidate drugs that decrease interictal-and/or ictal-like activity in mutant zebrafish lines are then validated in rodent models. Two rodent lines that contain coding deletions in the mammalian orthologs to the zebrafish mutants were used. Candidate drugs were injected intracranially and a decrease in seizure behaviors are monitored using video and […].
Briefly, mice were anesthetized with 3% isofluorane for 2 minutes. Eye glue was applied to the mouse, and anesthesia […] to 2% isofluorane. A “toe pinch” was administered to check anesthetic effect. The surgical area was then shaved while still connected to anesthesia. The anesthesia was increased to 2.5% isofluorane and the anesthetic cone placed over the nose. […]
Vorinostat (Drug #90) treatment reduces seizure occurrence in Kv1.1 null mice. Shown is a representative example of an electrographic seizure recorded from a Kv1.1−/−mouse. Three sets of epidural electroencephalogram (EEG) electrodes simultaneously recorded the signals across the rostral (top trace), medial (middle), and caudal (bottom trace) dorsal aspect of the neocortex. Bar graph of the mean number of seizures per day recorded from three Kv1.1−/−mice. Mice were recorded 24 hours per day for 3 consecutive days (No treatment, PND 43-45) and then received vorinostat injections (20 mg/kg, twice a day) for the next three consecutive days (PND 46-48).

kcna1 mutant zebrafish = experiment: EEG / extracellular field recordings on live zebrafish larvae; assay type: in vivo; details: kcna1 mutants plus vorinostat (10 μM)
Experimental: First, EEG recordings on live zebrafish were conducted. Briefly, acute seizure-like activity is measured in WT and mutant zebrafish larvae (5 dpf). Extracellular field recordings were obtained from the optic tectum of zebrafish larvae exposed first to vehicle, then washed out and then exposed to candidate drugs. Recordings are collected over 20 minutes and any decrease in small-amplitude “interictal”-like activity and/or large-amplitude “ictal”-like activity is quantified.

N[C@@H](Cc1ccc(O)c(O)c1)C(=O)O [L-DOPA]
effect on increased basal respiration in park2 morphants (park2 morphants): reverses this increased bioenergetics to WT levels

CC(Cc1ccccc1)(NC(=O)CN)c1ccccc1 (stereo not shown) [Remacemide]
uncovered by the screening platform in genetic model (kcna1 morphants) (kcna1 morphants): would not have uncovered
uncovered by the screening platform in genetic model (scn1a morphants) (scn1a morphants [1]): would not have uncovered

C[C@H](NCc1ccc(OCc2cccc(F)c2)cc1)C(N)=O [Safinamide]
uncovered by the screening platform in genetic model (kcna1 morphants) (kcna1 morphants): would not have uncovered
uncovered by the screening platform in genetic model (scn1a morphants) (scn1a morphants [1]): would not have uncovered

CC(=O)N1N=C(c2ccc(N)cc2)c2cc3c(cc2C[C@H]1C)OCO3 [Talampanel]
uncovered by the screening platform in genetic model (kcna1 morphants) (kcna1 morphants): would not have uncovered
uncovered by the screening platform in genetic model (scn1a morphants) (scn1a morphants [1]): would not have uncovered

CCCC(CCC)C(=O)O [Valproic acid]
events via which increased respiration was blocked, kcna1 morphants (kcna1 morphant zebrafish): mitochondrial-mediated events
effect on elevated basal respiration in kcna1 morphant larvae (kcna1 morphant zebrafish): blocked
effect on increased basal respiration in scn1a morphants (scn1a morphants [2]): reduce basal respiration to WT levels
effect on hyperactivity of kcna1 morphants [3]: no effect
events via which elevated basal respiration was blocked, PTZ treated larvae [4]: non-mitochondrial-mediated events
effect on elevated basal respiration in PTZ treated larvae ([4]; 24-well plate): blocked
effect on increased basal respiration in kcna1 mutant larvae (kcna1 mutants): decreased

O=C1CCc2ccc(OCCCCN3CCN(c4cccc(Cl)c4Cl)CC3)cc2N1 [aripiprazole]
effect on increased basal respiration in shank3 morphants (shank3 morphants): Neither resperidon nor aripiprazole were effective

CC(C)C[C@H]1C(=O)N2CCC[C@H]2[C@]2(O)O[C@](NC(=O)[C@@H]3C=C4c5cccc6[nH]c(Br)c(c56)C[C@H]4N(C)C3)(C(C)C)C(=O)N12 [bromocriptine]
effect on increased basal respiration in park2 morphants (park2 morphants): no effect

N.N.[Cl][Pt][Cl] [cisplatin]
effect on increased basal respiration in cdkn2b morphants (cdkn2b morphants): reverses this increased bioenergetics to WT levels
effect on increased basal respiration in smarcbla morphants (smarcbla morphants): reverses this increased bioenergetics to WT levels

O=P1(N(CCCl)CCCl)NCCCO1 (stereo not shown) [cyclophosphamide]
effect on increased basal respiration in smarcbla morphants (smarcbla morphants): no effect

Cc1nc2n(c(=O)c1CCN1CCC(c3noc4cc(F)ccc34)CC1)CCCC2 [resperidon]
effect on increased basal respiration in shank3 morphants (shank3 morphants): Neither resperidon nor aripiprazole were effective

O=C(CCCCCCC(=O)Nc1ccccc1)NO [vorinostat]
events via which increased respiration was blocked, kcna1 morphants (kcna1 morphant zebrafish): mitochondrial-mediated events
effect on elevated basal respiration in kcna1 morphant larvae (kcna1 morphant zebrafish): blocked
number of seizures per day (video EEG) (Kv1.1 null mice): significantly reduced
effect on increased basal respiration in kcna1 mutant larvae (kcna1 mutants): decreased
effect on seizure-like activity (EEG traces) (kcna1 mutant zebrafish): blocks

Reference: patent publication US11013219B2, “Metabolism-based drug screening platform in bioengineered zebrafish” (Path Therapeutics, Inc., priority 2014, dated 2021)
